Test results reported in patent US20240132484A1, “BROAD SPECTRUM ANTIVIRAL COMPOUNDS TARGETING THE SKI COMPLEX” (priority 2020, published 2024).
Where “and” joins values, the source holds several entries; their conditions need not be identical. Identical values can stand only once. Like-named read-outs stand apart in the source and are kept apart here.

Assays:
[1] = system: cells (nuclei count); conditions: for Toxicity Data, Average, Mean (percentage relative to appropriate DMSO control): average of Exp 1 and Exp 2, n=4; for Relative cell count to DMSO controls, Average 1 μM / Relative cell count to DMSO controls, Average 5 μM / Relative cell count to DMSO controls, Average 10 μM / Relative cell count to DMSO controls, Average 25 μM / Relative cell count to DMSO controls, Average 50 μM: toxicity data, 100=DMSO control; for Relative cell count to DMSO controls, Average (for correlation analysis): average value over the 5 tested concentrations (1 to 50 uM)
[2] = system: SARS2; format: cell-based, SARS-CoV-2; conditions: for Infection Data, Percentage Infection Relative to Appropriate DMSO Control with Avg Background Subtraction: duplicate wells, listed as SICLS62; for Infection Data, Average, Mean (Percentage Infection Relative to Appropriate DMSO Control): average of Exp 1 and Exp 2, n=4; for Percentage Inhibition Average 1 μM / Screening data (Relative infection to DMSO controls) Average 1 μM: SARS2, 1 μM; for Screening data (Relative infection to DMSO controls) Average 1 μM / Screening data (Relative infection to DMSO controls) Average 5 μM / Screening data (Relative infection to DMSO controls) Average 10 μM / Screening data (Relative infection to DMSO controls) Average 25 μM / Screening data (Relative infection to DMSO controls) Average 50 μM / Average (relative infection to DMSO over the 5 tested concentrations): 100=DMSO control; for Percentage Inhibition Average 5 μM / Screening data (Relative infection to DMSO controls) Average 5 μM: SARS2, 5 μM; for Percentage Inhibition Average 10 μM / Screening data (Relative infection to DMSO controls) Average 10 μM: SARS2, 10 μM; for Percentage Inhibition Average 25 μM / Screening data (Relative infection to DMSO controls) Average 25 μM: SARS2, 25 μM; for Percentage Inhibition Average 50 μM / Screening data (Relative infection to DMSO controls) Average 50 μM: SARS2, 50 μM; for Average (relative infection to DMSO over the 5 tested concentrations): SARS2, average over 1 to 50 uM

Structure (SMILES): CC1=C(C(=O)NCC2CCC2)C(c2cccs2)NC(=O)N1 (stereo not drawn) [SILCS62]
- Toxicity Data, Average, Mean (percentage relative to appropriate DMSO control) ([1]; 1 uM): 112.47%
- Relative cell count to DMSO controls, Average 1 μM [1]: 112.47
- Toxicity Data, Average, Mean (percentage relative to appropriate DMSO control) ([1]; 5 uM): 123.92%
- Relative cell count to DMSO controls, Average 5 μM [1]: 123.92
- Toxicity Data, Average, Mean (percentage relative to appropriate DMSO control) ([1]; 10 uM): 116.29%
- Relative cell count to DMSO controls, Average 10 μM [1]: 116.29
- Toxicity Data, Average, Mean (percentage relative to appropriate DMSO control) ([1]; 25 uM): 106.51%
- Relative cell count to DMSO controls, Average 25 μM [1]: 106.51
- Toxicity Data, Average, Mean (percentage relative to appropriate DMSO control) ([1]; 50 uM): 98.08%
- Relative cell count to DMSO controls, Average 50 μM [1]: 98.08
- Relative cell count to DMSO controls, Average (for correlation analysis) [1]: 111.45
- Infection Data, Percentage Infection Relative to Appropriate DMSO Control with Avg Background Subtraction ([2]; 1 uM, Exp 1 (SMW506)): 84.10% and 102.05%
- Infection Data, Percentage Infection Relative to Appropriate DMSO Control with Avg Background Subtraction ([2]; 1 uM, Exp 2 (SMW492), SILCS 61-66 and 67-72 plates): 50.01% and 36.38%
- Infection Data, Average, Mean (Percentage Infection Relative to Appropriate DMSO Control) ([2]; 1 uM): 68.14%
- Infection Data, Percentage Infection Relative to Appropriate DMSO Control with Avg Background Subtraction ([2]; 5 uM, Exp 1 (SMW506)): 45.05% and 53.24%
- Infection Data, Percentage Infection Relative to Appropriate DMSO Control with Avg Background Subtraction ([2]; 5 uM, Exp 2 (SMW492), SILCS 61-66 and 67-72 plates): 9.05% and 14.15%
- Infection Data, Average, Mean (Percentage Infection Relative to Appropriate DMSO Control) ([2]; 5 uM): 30.37%
- Infection Data, Percentage Infection Relative to Appropriate DMSO Control with Avg Background Subtraction ([2]; 10 uM, Exp 1 (SMW506)): 84.98% and 89.35%
- Infection Data, Percentage Infection Relative to Appropriate DMSO Control with Avg Background Subtraction ([2]; 10 uM, Exp 2 (SMW492), SILCS 61-66 and 67-72 plates): 5.57% and 5.50%
- Infection Data, Average, Mean (Percentage Infection Relative to Appropriate DMSO Control) ([2]; 10 uM): 46.35%
- Infection Data, Percentage Infection Relative to Appropriate DMSO Control with Avg Background Subtraction ([2]; 25 uM, Exp 1 (SMW506)): 83.54% and 119.74%
- Infection Data, Percentage Infection Relative to Appropriate DMSO Control with Avg Background Subtraction ([2]; 25 uM, Exp 2 (SMW492), SILCS 61-66 and 67-72 plates): 1.62% and 0.75%
- Infection Data, Average, Mean (Percentage Infection Relative to Appropriate DMSO Control) ([2]; 25 uM): 51.41%
- Infection Data, Percentage Infection Relative to Appropriate DMSO Control with Avg Background Subtraction ([2]; 50 uM, Exp 2 (SMW492), SILCS 61-66 and 67-72 plates): −0.82% and 2.34%
- Infection Data, Average, Mean (Percentage Infection Relative to Appropriate DMSO Control) ([2]; 50 uM): 23.88%
- Percentage Inhibition Average 1 μM [2]: 31.86%
- Screening data (Relative infection to DMSO controls) Average 1 μM [2]: 68.14
- Percentage Inhibition Average 5 μM [2]: 69.63%
- Screening data (Relative infection to DMSO controls) Average 5 μM [2]: 30.37
- Percentage Inhibition Average 10 μM [2]: 53.65%
- Screening data (Relative infection to DMSO controls) Average 10 μM [2]: 46.35
- Percentage Inhibition Average 25 μM [2]: 48.59%
- Screening data (Relative infection to DMSO controls) Average 25 μM [2]: 51.41
- Percentage Inhibition Average 50 μM [2]: 76.12%
- Screening data (Relative infection to DMSO controls) Average 50 μM [2]: 23.88
- Average (relative infection to DMSO over the 5 tested concentrations) [2]: 44.03

Structure (SMILES): Cc1ccc(CN(CCN(C)C)Cc2ccc(C)s2)o1 [SILCS7]
- Relative cell count to DMSO controls, Average 1 μM [1]: 110.82
- Relative cell count to DMSO controls, Average 5 μM [1]: 103.66
- Relative cell count to DMSO controls, Average 10 μM [1]: 106.58
- Relative cell count to DMSO controls, Average 25 μM [1]: 103.49
- Relative cell count to DMSO controls, Average 50 μM [1]: 73.73
- Toxicity Data, Average, Mean (relative to DMSO control) ([1]; Average of Exp 1-3, 1 uM): 110.82%
- Toxicity Data, Average, Mean (relative to DMSO control) ([1]; Average of Exp 1-3, 5 uM): 103.66%
- Toxicity Data, Average, Mean (relative to DMSO control) ([1]; Average of Exp 1-3, 10 uM): 106.58%
- Toxicity Data, Average, Mean (relative to DMSO control) ([1]; Average of Exp 1-3, 25 uM): 103.49%
- Toxicity Data, Average, Mean (relative to DMSO control) ([1]; Average of Exp 1-3, 50 uM): 73.73%
- Relative cell count to DMSO controls, Average (for correlation analysis) [1]: 99.66
- Percentage Inhibition Average 1 μM [2]: 6.07%
- Screening data (Relative infection to DMSO controls) Average 1 μM [2]: 93.93
- Percentage Inhibition Average 5 μM [2]: 7.19%
- Screening data (Relative infection to DMSO controls) Average 5 μM [2]: 92.81
- Percentage Inhibition Average 10 μM [2]: 42.29%
- Screening data (Relative infection to DMSO controls) Average 10 μM [2]: 57.71
- Percentage Inhibition Average 25 μM [2]: 58.04%
- Screening data (Relative infection to DMSO controls) Average 25 μM [2]: 41.96
- Percentage Inhibition Average 50 μM [2]: 68.91%
- Screening data (Relative infection to DMSO controls) Average 50 μM [2]: 31.09
- Average (relative infection to DMSO over the 5 tested concentrations) [2]: 63.50

Structure (SMILES): CC1=C(C(=O)NCc2ccccc2)C(c2ccc(C)o2)NC(=O)N1 (stereo not drawn) [SILCS69]
- Relative cell count to DMSO controls, Average 1 μM [1]: 114.56
- Relative cell count to DMSO controls, Average 5 μM [1]: 113.8
- Relative cell count to DMSO controls, Average 10 μM [1]: 108.32
- Relative cell count to DMSO controls, Average 25 μM [1]: 93.65
- Relative cell count to DMSO controls, Average 50 μM [1]: 79.5
- Relative cell count to DMSO controls, Average (for correlation analysis) [1]: 101.97
- Percentage Inhibition Average 1 μM [2]: 44.23%
- Screening data (Relative infection to DMSO controls) Average 1 μM [2]: 55.77
- Percentage Inhibition Average 5 μM [2]: 29.45%
- Screening data (Relative infection to DMSO controls) Average 5 μM [2]: 70.55
- Percentage Inhibition Average 10 μM [2]: 24.51%
- Screening data (Relative infection to DMSO controls) Average 10 μM [2]: 75.49
- Percentage Inhibition Average 25 μM [2]: −26.06%
- Screening data (Relative infection to DMSO controls) Average 25 μM [2]: 126.06
- Percentage Inhibition Average 50 μM [2]: −48.18%
- Screening data (Relative infection to DMSO controls) Average 50 μM [2]: 148.18
- Average (relative infection to DMSO over the 5 tested concentrations) [2]: 95.21
